In PubChem BioAssay AID2124 (Sanford-Burnham Center for Chemical Genomics, 2009):
Results filed as inconclusive are left out. Activity calls are given as the source filed them. The rule behind the calls is not given here; tested in MIN6 cells.

Experiment: GFP-wavelength compound autofluorescence in cells – imaging, high-content imaging, artefact control, dose response (AID 2124);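 note: cells exposed to compound for 48 hours before fixing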
Conditions: cells, GFP-channel autofluorescence, high-content imaging, at 10 µM; for z-score: stronger effect = higher value

Row | Compound | z-score | cell count [cells]
1 | Cc1ccc(-c2ccc(/C=C(\C#N)C(=O)Nc3cc(C)nn3-c3ccccc3)o2)cc1 | 1.66 | 2460
2 | O=C(Cc1nc(-c2ccc([N+](=O)[O-])cc2)cs1)Nc1ccccc1 | -0.39 (inactive) | 2770
3 | COc1ccc(/C(O)=C/c2nc3ccc(C(=O)NCCc4cccc(C)c4)cc3[nH]c2=O)cc1OC | 0.56 | 1180
4 | Cc1n[nH]c(C)c1N1C(=O)c2cccc3c(N4CCCCCC4)ccc(c23)C1=O | 0.33 | 2690
5 | Cc1ccc(S(=O)(=O)Nc2ccc(=O)n(Cc3ccc(Cl)c(Cl)c3)c2)cc1 | -0.33 (inactive) | 3230
6 | O=C(Nc1ccc(N2CCCCC2)cc1)c1cccnc1 | -0.39 (inactive) | 3060
7 | Cc1noc(C)c1CS(=O)(=O)c1ccc(Br)cc1 | -0.26 (inactive) | 2900
8 | CCCNC(=O)N1CCC(C(=O)c2ccc(Cl)cc2)CC1 | -0.38 (inactive) | 2970
9 | COc1cc(N2CCCC2)c(OC)cc1/C=C1/NC(=S)NC1=O | 0.59 | 2940
10 | Cc1ccc(S(=O)(=O)N2CCCC2C(=O)N(C)Cc2cccs2)cc1 (stereo not given) | -0.39 (inactive) | 3120
11 | Cc1nc2c(oc3ccccc32)c(=O)o1 | -0.33 (inactive) | 3020
12 | Cc1[nH]c2ccccc2c1/C=N/Nc1ccc([N+](=O)[O-])cc1 | 0.2 | 1600
13 | CC(=O)Nc1sc(/C(C#N)=C\c2cccc(Cl)c2)nc1-c1ccc(C)cc1 | 1.12 | 3000
14 | COc1ccc(/C=C(\C#N)C(=O)OCC(=O)Nc2c(C)cccc2C(C)C)cc1 | -0.39 (inactive) | 2950
15 | COc1cc2nc(/C=C/c3ccc(N(C)C)cc3)sc2cc1SC | 0.29 | 2900
16 | Cc1cc(N/N=C/c2ccc([N+](=O)[O-])o2)nc2ccccc12 | 0.28 | 733
17 | CCOc1ccc(NC(=S)N2CCC(N(C)CC3CCCO3)CC2)cc1 (stereo not given) | -0.33 (inactive) | 2900
18 | CCCCC(=O)Nc1ccc2c(c1)nc1n2CCSC1 | -0.38 (inactive) | 2870
19 | CN(C)c1ccc(/C=C2\SC(=O)N(CC(O)Cn3c4ccccc4c4ccccc43)C2=O)cc1 (stereo not given) | -0.23 (inactive) | 3020
20 | O=C1CN(C(=O)COc2ncnc3ccccc23)c2ccccc2N1 | -0.38 (inactive) | 3020
21 | CCCN1CC=C2C(C#N)=C(N)C(C#N)(C#N)C(c3cccc(OC)c3OC)C2C1 (stereo not given) | 0.21 | 3050
22 | COc1cc(S(=O)(=O)N2CCOCC2)ccc1NC(=O)COC(=O)C12CC3CC(CC(C3)C1)C2 | -0.39 (inactive) | 3410
23 | O=c1ccnc(Nc2ccc3c(c2)OCCO3)[nH]1 | -0.39 (inactive) | 2860
24 | COCCNC(=S)N/N=C(\C)c1ccc2cc(OC)ccc2c1 | -0.33 (inactive) | 2790
25 | C=CCNC(=O)/C(=C\c1ccc(Br)cc1)NC(=O)c1ccccc1OC | -0.39 (inactive) | 3390
26 | COc1cccc2c(=O)n(CC(=O)Nc3cccc(F)c3)ccc12 | -0.33 (inactive) | 3120
27 | CCCOc1cc(N(CC)CC)ccc1/C=C(/C#N)c1nc2ccc(C)cc2[nH]1 | 0.73 | 1370

Row | Compound | z-score | cell count [cells]
28 | Cc1[nH]c2ccccc2c1/C=N/Nc1ccc([N+](=O)[O-])cc1S(=O)(=O)Nc1ccc(Cl)cc1 | 0.35 | 2050
29 | CCOC(=O)c1sc(NC(=O)c2sccc2C)cc1C | -0.39 (inactive) | 3300
30 | CC(=O)N1CCN(Cc2nc3cc(NC(=O)c4ccccc4)ccc3n2C)CC1 | -0.38 (inactive) | 2960
31 | CCN(CC)CCn1c(=S)[nH]c2ccc(Cl)cc2c1=O | -0.33 (inactive) | 2890
32 | O=C1S/C(=C\c2ccc(N3CCOCC3)o2)C(=O)N1Cc1c(F)cccc1Cl | 2.04 | 1540
33 | COc1ccc2c(C(=O)CN(C)C3CCCCC3)c[nH]c2c1 | -0.37 (inactive) | 3190
34 | COc1ccc(N=C2NC(=O)S/C2=C\c2ccc(N(C)C)cc2)cc1 | -0.25 (inactive) | 2870
35 | COc1ccc(OC)c(C2=NOC(C(=O)NCC3CCCO3)C2)c1 (stereo not given) | -0.39 (inactive) | 2830
36 | N#Cc1c(-c2ccco2)cc(C2CC2)nc1SCC(=O)c1ccccc1 | -0.27 (inactive) | 3090
37 | O=C(N=C1SCC(=O)N1c1ccccc1Cl)c1ccccc1 | -0.31 (inactive) | 3110
38 | CN1C=CC2=C(C#N)C(N)C(C#N)(C#N)C(c3ccccc3)C2C1 (stereo not given) | 0.32 | 2840
39 | N#C/C(=C\c1ccc(N2CCCCC2)o1)C(=O)Nc1cccc(Br)c1 | 3.15 | 2780
40 | COc1cc(OC)cc(C(=O)Nc2cccc(C(C)=O)c2)c1 | -0.39 (inactive) | 3260
41 | O=C1/C(=C/c2ccc(N3CCCC3)cc2)NC(=S)N1C1CC1 | 0.41 | 2770
42 | CCCCN1C(=O)/C(=C/C=C2\Oc3ccccc3N2CC)SC1=S | 1.42 | 3450
43 | CN1CCN(C(=O)/C(=C\c2cccs2)NC(=O)c2cccs2)CC1 | -0.33 (inactive) | 3070
44 | Fc1ccc(C2NCCn3cccc32)cc1 (stereo not given) | -0.38 (inactive) | 2950
45 | Cc1cccc(NC(=O)/C=C/c2ccc([N+](=O)[O-])s2)c1 | 0.41 | 244
46 | CCCN1C(=O)c2cccc3c(N4CCCCC4)ccc(c23)C1=O | 0.28 | 3300
47 | Nc1c(C(=O)N/N=C/c2cccnc2)oc2nc(-c3ccco3)cc(-c3ccco3)c12 | -0.32 (inactive) | 2960
48 | Cc1cc(C)cc(-n2c(=O)c3sccc3n(CC(=O)NCc3ccco3)c2=O)c1 | -0.39 (inactive) | 3120
49 | CC(C)OC(=O)CN1C(=O)S/C(=C/c2ccc(N3CCCCC3)o2)C1=O | 0.56 | 2120
50 | C=CCNC(=O)C1CCN(S(=O)(=O)c2ccc(Br)cc2)CC1 | -0.33 (inactive) | 3230
51 | COc1cc(C)nc(N2CCCC(C(=O)Nc3cccc(Cl)c3C)C2)n1 (stereo not given) | -0.38 (inactive) | 3090
52 | NS(=O)(=O)c1cccc2cccnc12 | -0.33 (inactive) | 3060
53 | CN(C)C=Nc1ccc2nn(-c3ccccc3)nc2c1 | -0.34 (inactive) | 3050
54 | COC(CNC(=O)c1ccc(Cn2c(=S)[nH]c3cc4c(cc3c2=O)OCO4)cc1)OC | -0.33 (inactive) | 3340

Row | Compound | z-score | cell count [cells]
55 | Cc1cccc(Oc2nccc(C(F)(F)F)c2C(=O)Nc2ccc(F)cc2F)c1 | -0.39 (inactive) | 3510
56 | COCc1cc(C)nc(Nc2ccccc2C)c1C#N | -0.34 (inactive) | 3240
57 | COC(=O)c1c[nH]n2c(=O)c(Cc3ccc(F)cc3Cl)c(C)nc12 | -0.33 (inactive) | 3100
58 | CC(C)(C)c1cc(C(=O)NCc2cccnc2)ccn1 | -0.33 (inactive) | 3450
59 | CCOCCCNc1nc2c(C)cccn2c(=O)c1/C=C1\SC(=S)N(CC(C)C)C1=O | -0.38 (inactive) | 2900
60 | CN(C)c1ccc(/C=C2\SC(=S)N(Nc3ncc(C(F)(F)F)cc3Cl)C2=O)cc1 | 0.57 | 2530
61 | CCOC(=O)CC1C(=O)NCCN1S(=O)(=O)c1ccc(Cl)cc1Cl (stereo not given) | -0.33 (inactive) | 3500
62 | COc1ccc(Cl)cc1NC(=O)c1c(-c2ccccc2)noc1C | -0.39 (inactive) | 3300
63 | CCCCC1=CC2=C(c3ccco3)C(=O)C(C)(OC(=O)c3ccc(OC)cc3)C(=O)C2=CN1CC(C)C (stereo not given) | -0.39 (inactive) | 2870
64 | Cn1c(=O)c(NC2CCCCC2)c2c3c(cccc31)C(=O)c1ccccc1-2 | 3.32 | 3050
65 | Nc1ccc(-c2nc3nc(N)nc(N)c3nc2-c2ccc(N)cc2)cc1 | -0.32 (inactive) | 2980
66 | Cc1ccccc1-n1ncc2c(SCC(=O)NCc3cccs3)ncnc21 | -0.38 (inactive) | 2670
67 | CCN1CCc2c(sc(NC(=O)Nc3ccc(Cl)c(Cl)c3)c2C(N)=O)C1 | 8.59 | 1910
68 | CC1CC(=O)C2=C(C1)OC(N)=C(C#N)C2c1coc2ccccc2c1=O (stereo not given) | -0.38 (inactive) | 3180
69 | CN(C)c1nc(N)nc(/C(C#N)=C/C2CC3C=CC2C3)n1 (stereo not given) | -0.33 (inactive) | 2780
70 | CC(=O)C1=C(C)Nc2ncnn2C1c1ccc(Cl)cc1Cl (stereo not given) | -0.33 (inactive) | 3270
71 | COc1cccc(OC)c1OCCN(C)C | -0.33 (inactive) | 3360
72 | Fc1ccc(C2CC(c3ccco3)=NN2c2ccccc2)cc1 (stereo not given) | -0.33 (inactive) | 2910
73 | CC1=Nc2ccccc2/C1=C/c1sc(=S)n(-c2cccc(C(=O)O)c2)c1O | -0.37 (inactive) | 3380
74 | Cn1ncc2c1ncn1nc(CCc3ccccc3)nc21 | -0.33 (inactive) | 2710
75 | CC(=O)c1ccc2cccc3c2c1N=CN3C | -0.23 (inactive) | 3230
76 | COc1cc2c3nnc(-c4ccccc4)c-3cn(Cc3ccccc3F)c2cc1OC | 3.78 | 770
77 | COc1cccc(/C=N/NC(=O)CCn2cnc3ccccc32)c1 | -0.33 (inactive) | 3250
78 | CC(C)=NNc1nc2c(c(=O)n(C)c(=O)n2C)n1CCc1ccccc1 | -0.39 (inactive) | 3610
79 | CCCn1nc2cc(C(=O)NCc3ccccc3)ccc2c1OCC | -0.33 (inactive) | 3340
80 | CCCCNC(=O)/C(C#N)=c1\s/c(=C\c2ccccc2OC(F)F)c(=O)n1CCCOC | -0.37 (inactive) | 3260
